Experiments:
Experiment in all cases: combination Emax (second highest fraction inhibited in the dose matrix, 72 h); higher = more inhibition; extreme values may be limits of the assay
HCC70 (Breast Carcinoma) = system: HCC70 (Breast Carcinoma)
Method in brief: (§1)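 After 24 hours at 37°C and 5% CO2 in 1536-well plates, cells in DMEM/F12 or RPMI plus 10% FBS received two-drug dose matrices for 72 hours. Viability came from CellTiter-Glo 2.0 luminescence and was scaled as inhibition, anchored at 0 by vehicle wells and at 1 by blank wells. Combination Emax is taken as the second-highest inhibition in the matrix, and Bliss excess as the observed combination effect less EA + EB − EA·EB, with EA and EB the single-agent effects.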

EB2 (Burkitt's Lymphoma) = system: EB2 (Burkitt's Lymphoma)
Method in brief: as §1

[1] = system: KYSE-220 (Esophageal Squamous Cell Carcinoma)
Method in brief: as §1

[2] = system: MDA-MB-436 (Breast Carcinoma)
Method in brief: as §1

WM1552C (Melanoma) = system: WM1552C (Melanoma)
Method in brief: as §1

[3] = system: JHH-2 (Hepatocellular Carcinoma)
Method in brief: as §1

[4] = system: NCI-H1651 (Lung Adenocarcinoma)
Method in brief: as §1

[5] = system: SW620 (Colorectal Carcinoma)
Method in brief: as §1

IM-9 (Non-Cancerous) = system: IM-9 (Non-Cancerous)
Method in brief: as §1

[6] = system: JHU-022 (Oral Cavity Carcinoma)
Method in brief: as §1

[7] = system: LU-165 (Small Cell Lung Carcinoma)
Method in brief: as §1

[8] = system: CGTH-W-1 (Thyroid Gland Carcinoma)
Method in brief: as §1

EW-7 (Ewing's Sarcoma) = system: EW-7 (Ewing's Sarcoma)
Method in brief: as §1

[9] = system: SK-HEP-1 (Hepatocellular Carcinoma)
Method in brief: as §1

769-P (Kidney Carcinoma) = system: 769-P (Kidney Carcinoma)
Method in brief: as §1

[10] = system: A2780 (Ovarian Carcinoma)
Method in brief: as §1

[11] = system: 22RV1 (Prostate Carcinoma)
Method in brief: as §1

[12] = system: MHH-ES-1 (Ewing's Sarcoma)
Method in brief: as §1

[13] = system: HCC1395 (Breast Carcinoma)
Method in brief: as §1

[14] = system: NCI-H2087 (Lung Adenocarcinoma)
Method in brief: as §1

Row | Structure (SMILES) | combination Emax (HCC70 (Breast Carcinoma)) | combination Emax (EB2 (Burkitt's Lymphoma)) | combination Emax [1] | combination Emax [2] | combination Emax (WM1552C (Melanoma)) | combination Emax [3] | combination Emax [4] | combination Emax [5] | combination Emax (IM-9 (Non-Cancerous)) | combination Emax [6] | combination Emax [7] | combination Emax [8] | combination Emax (EW-7 (Ewing's Sarcoma)) | combination Emax [9] | combination Emax (769-P (Kidney Carcinoma)) | combination Emax [10] | combination Emax [11] | combination Emax [12] | combination Emax [13] | combination Emax [14]
1 | C[C@@H](c1ccc2nccn2c1)n1nnc2ncc(-c3cnn(C)c3)nc21 [Savolitinib] + CC1(C)CCC(CN2CCN(c3ccc(C(=O)NS(=O)(=O)c4ccc(NCC5CCOCC5)c([N+](=O)[O-])c4)c(Oc4cnc5[nH]ccc5c4)c3)CC2)=C(c2ccc(Cl)cc2)C1 [Venetoclax] (first compound max 1 µM, 7x7, partner max 1 µM) | 0.165 | 0.153 | 0.146 | 0.28 | 0.0794 | 0.0863 | 0.186 | 0.124 | 0.385 | 0.257 | 0.221 | 0.0942 | 0.118 | 0.164 | 0.0824 | 0.14 | 0.214 | 0.185 | 0.247 | 0.184
2 | CN(CCO)CC[C@H](CSc1ccccc1)Nc1ccc(S(=O)(=O)NC(=O)c2ccc(N3CCC([C@@H](O)c4ccccc4-c4ccc(Cl)cc4)CC3)cc2)cc1S(=O)(=O)C(F)(F)F [AZD4320] + CC(=O)O[C@H]1C(=O)[C@@]2(C)[C@H]([C@H](OC(=O)c3ccccc3)[C@]3(O)C[C@H](OC(=O)[C@H](O)[C@@H](NC(=O)c4ccccc4)c4ccccc4)C(C)=C1C3(C)C)[C@]1(OC(C)=O)CO[C@@H]1C[C@@H]2O [Paclitaxel] (first compound max 1 µM, 7x7, partner max 3 µM) | 0.875 | 0.802 | 0.793 | 0.65 | 0.941 | 0.93 | 0.981 | 1 | 1 | 0.846 | 0.88 | 0.881 | 1 | 0.952 | 0.958 | 0.946 | 0.845 | 1 | 0.838 | 0.976
